Measured values from patent US20190053492A1, “SUBSTITUTED PYRIDINE COMPOUNDS AS PESTICIDES” (Bayer CropScience Aktiengesellschaft, priority 2016, published 2019).
Read-outs that look alike come from different tables or passages of the source.

Experiments:
[1] = log P by HPLC on reversed-phase column (C 18), EEC Directive 79/831 Annex V.A8; type: physicochemical; conditions: 55° C.; for LOGP_HCOOH: log P (HCOOH); for chromatographic logP: reversed-phase HPLC column (C 18)
Description: Temperature: 55° C. […] Called log P (HCOOH) in the table. […] Called log P (neutral) in the table.

Spodoptera frugiperda = Spodoptera frugiperda spray test; type: in vivo; conditions: application rate 500 g/ha, after 7 days, maize leaf discs
Description: Spodoptera frugiperda—Spray Test
Solvent: 78.0 parts by weight of acetone • • 1.5 parts by weight of dimethylformamide
Emulsifier: alkylaryl polyglycol ether
To produce a suitable active ingredient formulation, 1 part by weight of active ingredient is dissolved with the specified parts by weight of solvent and made up with water containing an emulsifier concentration of 1000 ppm until the desired concentration is attained. To produce further test concentrations, the formulation is diluted with emulsifier-containing water.
Leaf discs of maize (Zea mays) are sprayed with an active ingredient formulation of the desired concentration and, after drying, populated with caterpillars of the armyworm (Spodoptera frugiperda).
After 7 days, the efficacy in % is determined. 100% means that all the caterpillars have been killed; 0% means that no caterpillar has been killed.

[2] = acidic range at pH 2.7, 0.1% aqueous formic acid and acetonitrile, HPLC on reversed-phase column (C 18)
[3] = log P, neutral range, HPLC on reversed-phase column (C 18)
[4] = pH 2.7, LC-MS acidic range, pH 2.7, 0.1% formic acid/acetonitrile, read-out: log P (acidic) / log P (HCOOH)
[5] = pH 7.8, LC-MS neutral range, pH 7.8, ammonium hydrogencarbonate/acetonitrile, read-out: log P (neutral)
[6] = acidic range pH 2.7, 0.1% aqueous formic acid and acetonitrile, reversed-phase column (C 18)

Structure (SMILES) | LOGP_NEUTRAL [1, 3] | chromatographic logP [1, 4] | chromatographic logP [1, 5] | LOGP_HCOOH [1, 6] | other results
CC(NC(=O)c1cc(-c2ccc(OC(F)(F)F)cc2)cc(NC(=O)C2CC2)n1)c1ccc(C#N)cc1 (single isomer, unassigned) [Example I-219] | 4.02 | – | – | – | LOGP_HCOOH [1, 2]: 4.17; efficacy (caterpillars killed) (Spodoptera frugiperda): 83%
O=C(O)c1cc(-c2ccc(OC(F)(F)F)cc2)cc(NC(=O)C2CC2)n1 [6-[(Cyclopropylcarbonyl)amino]-4-[4-(trifluoromethoxy)phenyl]pyridine-2-carboxylic acid] | – | 2.72 | 1.25 | – | –
N#Cc1cccc(CNC(=O)c2cc(-c3ccc(F)cc3)cc(NC(=O)C3CC3)n2)c1 [Example I-001] | – | – | – | 3.26 | –
O=C(NCc1cccc(F)c1)c1cc(-c2ccc(C(F)(F)F)cc2)cc(NC(=O)C2CC2)n1 [Example I-003] | – | – | – | 4.24 | efficacy (caterpillars killed) (Spodoptera frugiperda): 83%
O=C(NCc1cccc(Cl)c1)c1cc(-c2ccc(C(F)(F)F)cc2)cc(NC(=O)C2CC2)n1 [Example I-006] | 4.43 | – | – | 4.49 | efficacy (caterpillars killed) (Spodoptera frugiperda): 100%
O=C(NCc1ccc(Cl)cc1Cl)c1cc(-c2ccc(C(F)(F)F)cc2)cc(NC(=O)C2CC2)n1 [Example I-010] | 4.89 | – | – | 5.00 | efficacy (caterpillars killed) (Spodoptera frugiperda): 100%
CC(C)C(=O)Nc1cc(-c2ccc(C(F)(F)F)cc2)cc(C(=O)NCc2ccc(Cl)nc2)n1 [Example I-014] | 3.81 | – | – | 3.88 | efficacy (caterpillars killed) (Spodoptera frugiperda): 80%
N#Cc1ccc(CNC(=O)c2cc(-c3ccc(C(F)(F)F)cc3)cc(NC(=O)c3ccc(Cl)cc3)n2)cc1 [Example I-023] | 4.66 | – | – | 4.77 | efficacy (caterpillars killed) (Spodoptera frugiperda): 83%
N#Cc1ccc(CNC(=O)c2cc(-c3ccc(OC(F)F)cc3)cc(NC(=O)C3CC3)n2)cc1 [Example I-029] | 3.21 | – | – | 3.28 | efficacy (caterpillars killed) (Spodoptera frugiperda): 83%
CC(C)CNC(=O)c1cc(-c2ccc(C(F)(F)F)cc2)cc(NC(=O)C2CC2)n1 [Example I-032] | 3.98 | – | – | 4.06 | efficacy (caterpillars killed) (Spodoptera frugiperda): 100%
O=C(NC1CCC1)c1cc(-c2ccc(C(F)(F)F)cc2)cc(NC(=O)C2CC2)n1 [Example I-033] | 3.80 | – | – | 3.88 | efficacy (caterpillars killed) (Spodoptera frugiperda): 100%
CN(C(=O)c1cc(-c2ccc(C(F)(F)F)cc2)cc(NC(=O)C2CC2)n1)c1cccnc1 [Example I-034] | 2.72 | – | – | 2.73 | efficacy (caterpillars killed) (Spodoptera frugiperda): 100%
N#Cc1ccc(CCNC(=O)c2cc(-c3ccc(C(F)(F)F)cc3)cc(NC(=O)C3CC3)n2)cc1 [Example I-046] | 3.76 | – | – | 3.80 | efficacy (caterpillars killed) (Spodoptera frugiperda): 83%
N#Cc1ccc(CNC(=O)c2cc(-c3ccc(C(F)(F)F)cc3)cc(NC(=O)c3ccccc3Cl)n2)cc1 [Example I-047] | 4.15 | – | – | 4.26 | efficacy (caterpillars killed) (Spodoptera frugiperda): 83%
CC(C)C(=O)Nc1cc(-c2ccc(C(F)(F)F)cc2)cc(C(=O)NCc2cc(F)c(C#N)c(F)c2)n1 [Example I-072] | 4.04 | – | – | 4.23 | –
O=C(NC1CCCCC1)c1cc(-c2ccc(OC(F)(F)F)cc2)cc(NC(=O)C2CC2)n1 [Example I-168] | 4.57 | – | – | – | LOGP_HCOOH [1, 2]: 4.74
N#Cc1ccc(CNC(=O)c2cc(-c3ccc(OC(F)=C(F)F)cc3)cc(NC(=O)C3CC3)n2)cc1 [Example I-171] | 3.82 | – | – | – | LOGP_HCOOH [1, 2]: 3.96
CON(C)C(=O)c1cc(-c2ccc(OC(F)(F)F)cc2)cc(NC(=O)C2CC2)n1 [Example I-183] | 3.18 | – | – | – | LOGP_HCOOH [1, 2]: 3.22
N#CC1CCN(C(=O)c2cc(-c3ccc(OC(F)(F)F)cc3)cc(NC(=O)C3CC3)n2)CC1 [Example I-199] | – | – | – | – | LOGP_HCOOH [1, 2]: 3.21
N#Cc1ccc(CNC(=O)c2cc(-c3ccc(OC(F)(F)F)cc3)cc(NC(=O)C3(C4CC4)CC3)n2)cc1 [Example I-203] | 3.32 | – | – | – | –
N#Cc1ccc(CNC(=O)c2cc(-c3ccc(C(F)(F)C(F)(F)F)c(F)c3Cl)cc(NC(=O)C3CC3)n2)cc1 [Example I-266] | – | – | – | 4.34 | –

Structure (SMILES) | LOGP_NEUTRAL [1, 3] | chromatographic logP [1, 4] | chromatographic logP [1, 5] | LOGP_HCOOH [1, 6] | other results
Cc1cc(-c2cc(NC(=O)C3CC3)nc(C(=O)NCc3ccc(C#N)cc3)c2)cc(F)c1C(F)(F)C(F)(F)F [Example I-267] | – | – | – | 4.45 | –
N#Cc1ccc(CNC(=O)c2cc(-c3cc(F)c(C(F)(F)C(F)(F)F)cc3F)cc(NC(=O)C3CC3)n2)cc1 [Example I-275] | – | – | – | 4.11 | –
N#Cc1ccc(CNC(=O)c2cc(-c3cc(F)c(C(F)(F)C(F)(F)F)c(Cl)c3)cc(NC(=O)C3CC3)n2)cc1 [Example I-278] | – | – | – | 4.67 | LOGP_NEUTRAL ([1]; log P (neutral), HPLC reversed-phase column (C 18)): 4.52
N#Cc1ccc(CNC(=O)c2cc(B(O)O)cc(NC(=O)C3CC3)n2)cc1 [Example X-1b, {2-[(4-Cyanobenzyl)carbamoyl]-6-[(cyclopropylcarbonyl)amino]pyridin-4-yl}boric acid] | – | 1.58 | 1.25 | – | –
FC(F)(F)Oc1ccc(-c2cc(Cl)nc(Cl)c2)cc1 [XIV-1, 2,6-Dichloro-4-[4-(trifluoromethoxy)phenyl]pyridine] | – | 4.63 | 4.62 | – | –
Fc1cc(-c2cc(Cl)nc(Cl)c2)ccc1C(F)(F)C(F)(F)F [XIV-2, 2,6-Dichloro-4-[3-fluoro-4-(pentafluoroethyl)phenyl]pyridine] | – | 4.92 | 4.97 | – | –
Nc1cc(-c2ccc(Cl)cc2)cc(C(=O)O)n1 [XIX-1, 6-Amino-4-(4-chlorophenyl)pyridine-2-carboxylic acid] | – | 1.02 | – | – | –
C=Cc1cc(-c2ccc(OC(F)(F)F)cc2)cc(Cl)n1 [XV-1, 2-Chloro-4-[4-(trifluoromethoxy)phenyl]-6-vinylpyridine] | – | 4.77 | 4.72 | – | –
O=C(O)c1cc(-c2ccc(OC(F)(F)F)cc2)cc(Cl)n1 [XVI-1, 6-Chloro-4-[4-(trifluoromethoxy)phenyl]pyridine-2-carboxylic acid] | – | 3 | 1.17 | – | –
N#Cc1ccc(CNC(=O)c2cc(-c3ccc(OC(F)(F)F)cc3)cc(Cl)n2)cc1 [XVII-1, 6-Chloro-N-(4-cyanobenzyl)-4-[4-(trifluoromethoxy)phenyl]pyridine-2-carboxamide] | – | 4.23 | 4.19 | – | –
CNc1cc(-c2ccc(OC(F)(F)F)cc2)cc(C(=O)NCc2ccc(C#N)cc2)n1 [XVIII-1, N-(4-Cyanobenzyl)-6-(methylamino)-4-[4-(trifluoromethoxy)phenyl]pyridine-2-carboxamide] | – | 3.63 | 3.63 | – | –
N#Cc1ccc(CNC(=O)c2cc(-c3ccc(Cl)cc3)cc(N)n2)cc1 [XX-1, 6-Amino-4-(4-chlorophenyl)-N-(4-cyanobenzyl)pyridine-2-carboxamide] | – | – | 2.82 | – | –
CN(C(=O)c1cc(-c2ccc(C(F)(F)F)cc2)cc(N)n1)C1CC1 [XX-2, 6-Amino-N-cyclopropyl-N-methyl-4-[4-(trifluoromethyl)phenyl]pyridine-2-carboxamide] | – | – | 2.4 | – | –
N#Cc1ccc(CNC(=O)c2cc(-c3ccc(C(F)(F)F)cc3)cc(N)n2)cc1F [XX-3, 6-Amino-N-(4-cyano-3-fluorobenzyl)-4-[4-(trifluoromethyl)phenyl]pyridine-2-carboxamide] | – | – | 3.19 | – | –
Nc1cc(-c2ccc(C(F)(F)C(F)(F)F)c(F)c2)cc(Cl)n1 [XXI-1, 6-Chloro-4-[3-fluoro-4-(pentafluoroethyl)phenyl]pyridin-2-amine] | – | 3.85 | 3.83 | – | –
O=C(Nc1cc(-c2ccc(C(F)(F)C(F)(F)F)c(F)c2)cc(Cl)n1)C1CC1 [XXII-1, N-{6-Chloro-4-[3-fluoro-4-(pentafluoroethyl)phenyl]pyridin-2-yl}cyclopropanecarboxamide] | – | 4.76 | 4.64 | – | –
NC(=O)c1cc(-c2ccc(C(F)(F)C(F)(F)F)c(F)c2)cc(NC(=O)C2CC2)n1 [XXIII-1, 6-[(Cyclopropylcarbonyl)amino]-4-[3-fluoro-4-(pentafluoroethyl)phenyl]pyridine-2-carboxamide] | – | 3.18 | 3.17 | – | –
COC(=O)c1cc(-c2ccc(OC(F)(F)F)cc2)cc(NC(=O)C2CC2)n1 [XXIII-2, Methyl 6-[(cyclopropylcarbonyl)amino]-4-[4-(trifluoromethoxy)phenyl]pyridine-2-carboxylate] | – | 3.63 | 3.54 | – | –
NNC(=O)c1cc(-c2ccc(OC(F)(F)F)cc2)cc(NC(=O)C2CC2)n1 [XXIV-1, N-{6-(Hydrazinocarbonyl)-4-[4-(trifluoromethoxy)phenyl]pyridin-2-yl}cyclopropanecarboxamide] | – | 2.57 | 2.55 | – | –
N#Cc1cc(-c2ccc(OC(F)(F)F)cc2)cc(NC(=O)C2CC2)n1 [XXIX-1, N-{6-Cyano-4-[4-(trifluoromethoxy)phenyl]pyridin-2-yl}cyclopropanecarboxamide] | – | 3.85 | 3.89 | – | –
